Test system: mature miR-21 in HeLa cells
Experiment: qRT-PCR of mature miR-21 in HeLa cells
Type: cell-based
Protocol: FIGS. 12A and 12B compare levels of mature miR-21 in HeLa cells, as measured by standard qRT-PCR after 5 days of incubation in the presence of palbociclib and compounds −0045 (sm1), −0050 (sm3) and −0052 (sm5) (FIG. 12A); and levels of mature miR-21 in HeLa cells were measured by qRT-PCR after 4 days of incubation in the presence of palbociclib (a control) and compounds −0045 (sm1), −0050 (sm3) and −0052 (sm5) (FIG. 12B), normalized to miR-21 levels in the absence of any compound. […] The two panels represent independent duplicates of the same experiment.
HeLa cells have relatively high levels of miR-21, and this cell line was used to evaluate whether addition of the molecules would decrease levels of mature miR-21, as expected for inhibition of miR-21 processing. […] In contrast, compounds −0045, −50 and −52, induce an approximately 20% percent decline in levels of mature miR-21 (FIGS. 12A and 12B; the comparison of FIG. 12A and FIG. 12B provides an indication in the uncertainty of the data). miR-21 is very long lived, with a lifetime of approximately 5 days. […] Similar results were obtained at higher numbers of cells/plate (200 k vs at the start of the experiment), but the experiment could not be extended beyond 2 days because of the very high cell density reached. The observed trends were nonetheless in agreement with the experiments conducted at lower cell density.

Row | Compound | decline in levels of mature miR-21 (days 4 and 5 of incubation, normalized to no compound) | reduction of all newly synthesized miR-21 (worked out from the 20% decrease and miR-21 lifetime of approximately 5 days) | increase in levels of miR-21 (days 4 and 5 of incubation, 20 k vs 200 k cells/plate, normalized to no compound)
1 | O=c1[nH]c(Nc2ccc(N3CCNCC3)cn2)nc2ccncc12 [−0050] | approximately 20% | about 60% | –
2 | CC(=O)c1c(C)c2cnc(Nc3ccc(N4CCNCC4)cn3)nc2n(C2CCCC2)c1=O [Palbociclib, reference compound] | – | – | 10-20%

— US20230416247A1, “DRUG-LIKE MOLECULES AND METHODS FOR THE THERAPEUTIC TARGETING OF MICRORNA-21” (University of Washington, priority 2020, published 2023)
